Patent publication US7304093B2, “Ketone compounds and compositions for cholesterol management and related uses” (Esperion Therapeutics, Inc., priority 2000, dated 2007)
Read-outs that look alike come from different tables or passages of the source. Marks after values point to notes of the source that are not given here.

System: female obese Zucker rats
Assay: Serum lipid and glycemic control variables in chow-fed obese female Zucker rats, daily oral gavage for two weeks
Assay type: in vivo, rat
Settings: for change in vivo at 100 mg/kg: Rattus norvegicus, Table 9; for Glucose / HDL-C / NEFA / Non-HDL-C / TG / Insulin: serum, mean ± SEM; for Insulin: Table 12
Procedure, shortened: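 Female obese Zucker fa rats, 10–12 wk, 400–500 g, chow-fed, dosed daily by oral gavage for 14 days in CMC/Tween 20 or ethanol/PEG-200 vehicle. After a 6-h fast, serum was sampled pre-dose, day 7 and day 14. Triglycerides, total cholesterol, NEFA and β-hydroxybutyrate were measured, plus lipoprotein cholesterol by gel-filtration profiling.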

Structure (SMILES): CC(C)(CCCCCC(=O)CCCCCC(C)(C)C(=O)O)C(=O)O [Compound 210g, 2,2,14,14-Tetramethyl-8-oxopentadecanedioic acid]
- NEFA, percent increase (+) or decrease (−) of the pretreatment control value (3 mg/kg daily oral, 1 wk): (−15) percent
- Glucose, percent increase (+) or decrease (−) of the pretreatment control value (3 mg/kg daily oral, 2 wk): (+108) percent
- NEFA, percent increase (+) or decrease (−) of the pretreatment control value (3 mg/kg daily oral, 2 wk): (−23) percent
- HDL-C, percent increase (+) or decrease (−) of the pretreatment control value (10 mg/kg daily oral, 1 wk): (+158) percent
- NEFA, percent increase (+) or decrease (−) of the pretreatment control value (10 mg/kg daily oral, 1 wk): (−17) percent
- TG, percent increase (+) or decrease (−) of the pretreatment control value (10 mg/kg daily oral, 1 wk): (−36) percent
- HDL-C, percent increase (+) or decrease (−) of the pretreatment control value (10 mg/kg daily oral, 2 wk): (+160) percent
- NEFA, percent increase (+) or decrease (−) of the pretreatment control value (10 mg/kg daily oral, 2 wk): (−21) percent
- Non-HDL-C, percent increase (+) or decrease (−) of the pretreatment control value (10 mg/kg daily oral, 2 wk): (+155) percent
- HDL-C, percent increase (+) or decrease (−) of the pretreatment control value (30 mg/kg daily oral, 1 wk): (+256) percent
- Insulin, percent increase (+) or decrease (−) of the pretreatment control value (30 mg/kg daily oral, 1 wk): (−35) percent
- NEFA, percent increase (+) or decrease (−) of the pretreatment control value (30 mg/kg daily oral, 1 wk): (−32) percent
- Non-HDL-C, percent increase (+) or decrease (−) of the pretreatment control value (30 mg/kg daily oral, 1 wk): (−48) percent
- TG, percent increase (+) or decrease (−) of the pretreatment control value (30 mg/kg daily oral, 1 wk): (−78) percent
- HDL-C, percent increase (+) or decrease (−) of the pretreatment control value (30 mg/kg daily oral, 2 wk): (+335) percent
- Insulin, percent increase (+) or decrease (−) of the pretreatment control value (30 mg/kg daily oral, 2 wk): (−21) percent
- NEFA, percent increase (+) or decrease (−) of the pretreatment control value (30 mg/kg daily oral, 2 wk): (−49) percent
- TG, percent increase (+) or decrease (−) of the pretreatment control value (30 mg/kg daily oral, 2 wk): (−52) percent
- Glucose, percent increase (+) or decrease (−) of the pretreatment control value (100 mg/kg daily oral, 1 wk): (−21) percent
- HDL-C, percent increase (+) or decrease (−) of the pretreatment control value (100 mg/kg daily oral, 1 wk): (+151) percent
- Insulin, percent increase (+) or decrease (−) of the pretreatment control value (100 mg/kg daily oral, 1 wk): (−46) percent
- NEFA, percent increase (+) or decrease (−) of the pretreatment control value (100 mg/kg daily oral, 1 wk): (−30) percent
- Non-HDL-C, percent increase (+) or decrease (−) of the pretreatment control value (100 mg/kg daily oral, 1 wk): (−92) percent
- TG, percent increase (+) or decrease (−) of the pretreatment control value (100 mg/kg daily oral, 1 wk): (−93) percent
- Glucose, percent increase (+) or decrease (−) of the pretreatment control value (100 mg/kg daily oral, 2 wk): (−10) percent
- HDL-C, percent increase (+) or decrease (−) of the pretreatment control value (100 mg/kg daily oral, 2 wk): (+213) percent
- Insulin, percent increase (+) or decrease (−) of the pretreatment control value (100 mg/kg daily oral, 2 wk): (−50) percent
- NEFA, percent increase (+) or decrease (−) of the pretreatment control value (100 mg/kg daily oral, 2 wk): (−52) percent
- Non-HDL-C, percent increase (+) or decrease (−) of the pretreatment control value (100 mg/kg daily oral, 2 wk): (−88) percent
- TG, percent increase (+) or decrease (−) of the pretreatment control value (100 mg/kg daily oral, 2 wk): (−92) percent
- change in vivo at 100 mg/kg (168 h, 100 mg/kg daily oral, 1 wk, read-out: HDL-Cholesterol, Percent Change from Pre-Treatment): 72%
- change in vivo at 100 mg/kg (168 h, 100 mg/kg daily oral, 1 wk, read-out: NonHDL-Cholesterol, Percent Change from Pre-Treatment): -98%
- change in vivo at 100 mg/kg (168 h, 100 mg/kg daily oral, 1 wk, read-out: TG, Percent Change from Pre-Treatment): -93%
- change in vivo at 100 mg/kg (336 h, 100 mg/kg daily oral, 2 wk, read-out: HDL-Cholesterol, Percent Change from Pre-Treatment): 168%
- change in vivo at 100 mg/kg (336 h, 100 mg/kg daily oral, 2 wk, read-out: NonHDL-Cholesterol, Percent Change from Pre-Treatment): -99%
- change in vivo at 100 mg/kg (336 h, 100 mg/kg daily oral, 2 wk, read-out: TG, Percent Change from Pre-Treatment): -94%
- Glucose (3 mg/kg daily oral, 1 wk): 117 ± 4 mg/dL
- HDL-C (3 mg/kg daily oral, 1 wk): 75 ± 6 mg/dL
- NEFA (3 mg/kg daily oral, 1 wk): 1.1 ± 0.07
- Non-HDL-C (3 mg/kg daily oral, 1 wk): 23 ± 2 mg/dL
- TG (3 mg/kg daily oral, 1 wk): 995 ± 50^a mg/dl
- Insulin (3 mg/kg daily oral, 1 wk): 10.0 ± 1.0 ng/mL
- Glucose (3 mg/kg daily oral, 2 wk): 124 ± 4^a mg/dl
- HDL-C (3 mg/kg daily oral, 2 wk): 77 ± 8 mg/dL
- NEFA (3 mg/kg daily oral, 2 wk): 1.0 ± 0.10
- Non-HDL-C (3 mg/kg daily oral, 2 wk): 25 ± 2 mg/dL
- TG (3 mg/kg daily oral, 2 wk): 833 ± 57 mg/dL
- Insulin (3 mg/kg daily oral, 2 wk): 7.3 ± 0.5 ng/mL
- Glucose (10 mg/kg daily oral, 1 wk): 122 ± 3 mg/dL
- HDL-C (10 mg/kg daily oral, 1 wk): 136 ± 11^a mg/dl
- NEFA (10 mg/kg daily oral, 1 wk): 1.0 ± 0.07
- Non-HDL-C (10 mg/kg daily oral, 1 wk): 22 ± 2 mg/dL
- TG (10 mg/kg daily oral, 1 wk): 553 ± 35^a mg/dl
- Insulin (10 mg/kg daily oral, 1 wk): 10.5 ± 1.1 ng/mL
- Glucose (10 mg/kg daily oral, 2 wk): 125 ± 4 mg/dL
- HDL-C (10 mg/kg daily oral, 2 wk): 138 ± 8^a mg/dl
- NEFA (10 mg/kg daily oral, 2 wk): 0.95 ± 0.08
- Non-HDL-C (10 mg/kg daily oral, 2 wk): 34 ± 3^a mg/dl
- TG (10 mg/kg daily oral, 2 wk): 865 ± 69 mg/dL
- Insulin (10 mg/kg daily oral, 2 wk): 9.1 ± 0.7 ng/mL
- Glucose (30 mg/kg daily oral, 1 wk): 108 ± 4 mg/dL
- HDL-C (30 mg/kg daily oral, 1 wk): 159 ± 12^a mg/dl
- NEFA (30 mg/kg daily oral, 1 wk): 0.88 ± 0.06
- Non-HDL-C (30 mg/kg daily oral, 1 wk): 14 ± 2^a mg/dl
- TG (30 mg/kg daily oral, 1 wk): 213 ± 19^a mg/dl
- Insulin (30 mg/kg daily oral, 1 wk): 6.4 ± 0.6^a ng/ml
- Glucose (30 mg/kg daily oral, 2 wk): 130 ± 4 mg/dL
- HDL-C (30 mg/kg daily oral, 2 wk): 208 ± 14^a mg/dl
- NEFA (30 mg/kg daily oral, 2 wk): 0.66 ± 0.03
- Non-HDL-C (30 mg/kg daily oral, 2 wk): 30 ± 2 mg/dL
- TG (30 mg/kg daily oral, 2 wk): 475 ± 38^a mg/dl
- Insulin (30 mg/kg daily oral, 2 wk): 7.7 ± 0.9^a ng/ml
- Glucose (100 mg/kg daily oral, 1 wk): 92 ± 4^a mg/dl
- HDL-C (100 mg/kg daily oral, 1 wk): 100 ± 8^a mg/dl
- NEFA (100 mg/kg daily oral, 1 wk): 0.98 ± 0.08
- Non-HDL-C (100 mg/kg daily oral, 1 wk): 2 ± 1^a mg/dl
- TG (100 mg/kg daily oral, 1 wk): 69 ± 5^a mg/dl
- Insulin (100 mg/kg daily oral, 1 wk): 6.4 ± 1.3^a ng/ml
- Glucose (100 mg/kg daily oral, 2 wk): 105 ± 3^a mg/dl
- HDL-C (100 mg/kg daily oral, 2 wk): 141 ± 12^a mg/dl
- NEFA (100 mg/kg daily oral, 2 wk): 0.66 ± 0.08
- Non-HDL-C (100 mg/kg daily oral, 2 wk): 3 ± 1^a mg/dl
- TG (100 mg/kg daily oral, 2 wk): 78 ± 10^a mg/dl
- Insulin (100 mg/kg daily oral, 2 wk): 6.0 ± 0.8^a ng/ml
